The record followed here is patent US4088653A, “Tetrahydropyridyl derivatives” (Canadian Patents and Developments Limited, priority 1976, dated 1978).

Read-outs that look alike come from different tables or passages of the source.

Test [1] deals with phenylquinone-writhing. The test can be described thus: Analgesic activity, phenylquinone-writhing test. It counts as in vivo, Swiss albino mice. The following applies: for ED50: Mus musculus, sc, read-out: Ed50 (analgesic activity); for Analgesic activity (in words): mouse, in vivo. On the procedure:
(§1) Initially the activity of the compound tested on an animal was determined at a single dose. If the substance was active at this dose, it was subjected to limited repeat testing. If the presence of activity was confirmed by repetition of the testing, a dose response relation was constructed and the effective dose (ED50) determined. If toxicity was encountered with the initial dose, the dose was reduced until one was reached which was tolerated by the animals tested.
The active ingredients were suspended in a solution of physiological saline and "Tween 80" (TM) surfactant. A dose amounting to 10 milliliters of physiological saline solution and active ingredient per kilogram of bodyweight was administered to the mice according to the dosage as set out in Table 2.

Test [2] deals with carageenan inflamed paw. The test can be described thus: Anti-inflammatory activity, carageenan-inflamed hind paw volume. The class given is in vivo, Sprague-Dawley rats. To be noted: for Response % animals protected, 3 hours after drug / Response % animals protected, 5 hours after drug: subcutaneous, Sprague-Dawley rats; for Anti-inflammatory activity (in words): rat, in vivo. As for the experimental part:
as §1
Substances were administered subcutaneously to Sprague-Dawley rats, weighing 100-120 g. A suspension of 0.03% carageenan was injected under the plantar skin of a hind paw. The increase in volume of the inflamed paw was measured 3 and 5 hours after drug administration.

In test [3] the test system is blood-glucose. The experiment in a line: Determination of blood-glucose (hyperglycemic activity). The class given is in vivo, Wistar rats. The following applies: for Hyperglycemic activity (in words): rat, in vivo; for % change in blood-glucose concentrations: oral, fasted Wistar rats, 4 hours post-treatment. As for the experimental part: as §1
Substances were suspended in distilled water and were administered orally to over-night fasted Wistar rats. […] (Escalab ® G:15) (Barthelmai and Czok, Klinische Wochenschrift 40: 585 (1962)).

[4] abbreviates: 32 mg/kg, subcutaneous, Swiss albino mice.
The mark [5] stands for this setting: 64 mg/kg, subcutaneous, Swiss albino mice.
The mark [6] stands for this setting: 128 mg/kg, subcutaneous, Swiss albino mice.
Where [7] appears, read: 256 mg/kg, subcutaneous, Swiss albino mice.
The mark [8] stands for this setting: subcutaneous, Swiss albino mice, method of Litchfield and Wilcoxon.

Regarding `CC(=O)Oc1ccccc1C(=O)O` [Aspirin (TM), reference compound], the ED50 (usually the dose at which the effect has come halfway, by size or by number of responders) in test [1] came to 52 mg/kg.

In the case of `O=C(NN1CC=CCC1)c1ccncc1` [Compound A-13, N-(4-pyridylcarbonylimino)-1,2,5,6-tetrahydropyridine], the “Response % inhibition (phenylquinone-writhing)” value (“Response % inhibition” below) in test [1] (setting [4]) turned out to be 38.6%; in test [1] (setting [5]), 58.0%; in test [1] (setting [6]) it was 80.8%; in test [1] (setting [7]) it was 96.0%. Moreover, in test [1] (setting [8]), the 50% effective dose (ED50) came out at 53 mg/kg. Also, the “Analgesic activity (in words)” value is “active analgesics” in test [1] and “analgesic” in test [1] (listed as A13). The “Response % animals protected, 3 hours after drug” value in test [2] (64 mg/kg) amounted to 25%. The “Response % animals protected, 5 hours after drug” value in test [2] (64 mg/kg) turned out to be 75%. The “Anti-inflammatory activity (in words)” value is “striking anti-inflammatory action” in test [2] and “anti-inflammatory” in test [2] (listed as A13). The “Hyperglycemic activity (in words)” value in test [3] is given as “demonstrated hyperglycemic activity”; in test [3] (listed as A13), “hyper-”.

On to `O=C(NN1CC=CCC1)c1cccnc1` [Compound A-14, N-(3-pyridylcarbonylimino)-1,2,5,6-tetrahydropyridine], for which the “Response % inhibition” value came out at 38.9% in test [1] (setting [4]), 59.2% in test [1] (setting [5]), 81.2% in test [1] (setting [6]) and 89.6% in test [1] (setting [7]). The ED50 in test [1] (setting [8]) worked out at 47 mg/kg. The “Analgesic activity (in words)” value is reported as “active analgesics” in test [1] and “analgesic” in test [1] (listed as A14). The “Response % animals protected, 3 hours after drug” value in test [2] (64 mg/kg) is on record as 50%. Also, the “Response % animals protected, 5 hours after drug” value in test [2] (64 mg/kg) turned out to be 0%. The “Hyperglycemic activity (in words)” value in test [3] is reported as “demonstrated hyperglycemic activity”; in test [3] (listed as A14) it was “hyper-”.

Regarding `O=C(NN1CC=CCC1)c1ccccn1` [Compound A-19, N-(2-pyridylcarbonylimino)-1,2,5,6-tetrahydropyridine], the “Response % inhibition” value in test [1] (setting [6]) came out at 57.3%. In addition, the “Analgesic activity (in words)” value in test [1] is given as “active analgesics”; in test [1] (listed as A19) it was “analgesic”. For the same compound, in test [2] (64 mg/kg), the “Response % animals protected, 3 hours after drug” value was found to be 25%. For the same compound, the “Response % animals protected, 5 hours after drug” value in test [2] (64 mg/kg) came to 75%. Moreover, the “Anti-inflammatory activity (in words)” value was “striking anti-inflammatory action” in test [2] and “anti-inflammatory” in test [2] (listed as A19). Besides, the “% change in blood-glucose concentrations” value in test [3] (100 mg/kg) and in test [3] (200 mg/kg) was “+50%” throughout. Further, the “Hyperglycemic activity (in words)” value was “demonstrated hyperglycemic activity” in test [3] and “hyper-” in test [3] (listed as A19).

`O=C(NN1CC=CCC1)c1ccccc1` [Compound A-20, N-(benzoylimino)-1,2,5,6-tetrahydropyridine]: the “Response % inhibition” value came to 26.2% in test [1] (16 mg/kg, subcutaneous, Swiss albino mice); 57.4% in test [1] (setting [4]); 59.0% in test [1] (setting [5]); 88.2% in test [1] (setting [6]); 98.0% in test [1] (setting [7]). Also, the ED50 in test [1] (setting [8]) turned out to be 36 mg/kg. Also, the “Analgesic activity (in words)” value was “active analgesics” in test [1] and “analgesic” in test [1] (listed as A20). For the same compound, the “Response % animals protected, 3 hours after drug” value in test [2] (64 mg/kg) came out at 25%. In addition, the “Response % animals protected, 5 hours after drug” value in test [2] (64 mg/kg) came to 50%.

As to `O=C(NN1CCC=C(CCCO)C1)c1ccccc1` [Compound A-21, N-(benzoylimino)-3-(3^1-hydroxypropyl)-1,2,5,6-tetrahydropyridine], the “Response % inhibition” value in test [1] (setting [6]) turned out to be 20%. Besides, the “Analgesic activity (in words)” value in test [1] is on record as “analgesic (slight)”.

For `O=C(NN1CCC=C(CCCO)C1)c1ccncc1` [Compound A-22, N-(4-pyridylcarbonylimino)-3-(3^1-hydroxypropyl)-1,2,5,6-tetrahydropyridine], the “Response % inhibition” value in test [1] (setting [6]) worked out at 43%. The “Analgesic activity (in words)” value in test [1] was “analgesic (slight)”.

As for `O=C(NN1CC=C(CCCO)CC1)c1ccncc1` [Compound A-23, N-(4-pyridylcarbonylimino)-4-(3^1-hydroxypropyl)-1,2,5,6-tetrahydropyridine], in test [1] (setting [6]), the “Response % inhibition” value is 11%. The “Response % animals protected, 3 hours after drug” value in test [2] (64 mg/kg) was 25%. Further, the “Response % animals protected, 5 hours after drug” value in test [2] (64 mg/kg) is given as 75%. Besides, the “Anti-inflammatory activity (in words)” value in test [2] is reported as “striking anti-inflammatory action”; in test [2] (listed as A23), “anti-inflammatory”.

As for `COc1ccc2c(c1)c(CC(=O)O)c(C)n2C(=O)c1ccc(Cl)cc1` [Indomethazine (TM), reference compound], in test [2] (12 mg/kg), the “Response % animals protected, 3 hours after drug” value is reported as 50% and the “Response % animals protected, 5 hours after drug” value is listed as 50%.
